Measurements from publication PMC11432330, “Novel Drug-like HsrA Inhibitors Exhibit Potent Narrow-Spectrum Antimicrobial Activities against Helicobacter pylori” (International Journal of Molecular Sciences, 2024).

Columns and labels:
[1] = target: T1, C. jejuni response regulator CosR (Campylobacter jejuni, UniProt Q0PBF4); experiment: Isothermal titration calorimetry (ITC) with CosR; assay type: binding
Procedure: Molecular interactions of the selected ligands with proteins HsrA or CosR were studied by isothermal titration calorimetry (ITC), as previously described. Titrations were assessed in a high-sensitivity MicroCal Auto-iTC200 calorimeter (Malvern Panalytical, Malvern, UK). Experiments were carried out at 25 °C in freshly prepared buffer containing 50 mM Tris-HCl [pH 8], 150 mM NaCl, 10% glycerol, and 1% DMSO. A 20 µM solution of protein was located in the calorimetric cell. Then, a sequence of 19 injections of 2 µL volume each with a 200 µM solution of the corresponding ligand was programmed with a time spacing of 150 s, a stirring speed of 750 rpm, and a reference power of 10 µcal/s in the sample cell. Thermodynamic properties such as binding stoichiometry, dissociation constants, and binding enthalpies were calculated by nonlinear least-squares regression data analysis using Origin 7.0 software.

[2] = target: T1, C. jejuni response regulator CosR; experiment: EMSA: inhibition of in vitro DNA binding activity of CosR to promoter PsodB; assay type: biochemical; details: 700 nM CosR, ligand 0.1-2 mM
Procedure: The DNA binding activities of recombinant HsrA and CosR were assessed in vitro by electrophoretic mobility shift assays (EMSAs). A 300-bp promoter region of the H. pylori 26695 operon porGDAB was used as the target sequence of HsrA in all EMSA experiments. Likewise, a 420-bp sequence of the C. jejuni sodB promoter (ATCC 33560) was used as the target DNA of CosR [90]. The oligonucleotides used for the synthesis of these promoter regions are described in Supplementary Table S4. Response regulators HsrA (6 μM) or CosR (700 nM) were mixed with 120 ng of their target promoters in a reaction buffer of 10 mM bis-Tris (pH 7.5), 40 mM KCl, 100 mg/L BSA, 1 mM DTT, and 5% glycerol. For the in vitro inhibition analyses, mixtures of target DNA and response regulator were exposed to 2, 1, 0.5, and 0.1 mM of each compound of interest, incubated at room temperature for 20 min, and then separated on a 6% non-denaturing electrophoresis. DMSO instead of inhibitors was included as a vehicle control, while an internal sequence of the Anabaena sp. pkn22 gene was used as the non-specific competitor in all assays. For DNA-protein binding visualization, gels were stained with the SYBR Safe DNA gel stain (Invitrogen) and analyzed with a Gel Doc 2000 Image Analyzer (Bio-Rad).

T1 sequence (Q0PBF4 entry or part of it): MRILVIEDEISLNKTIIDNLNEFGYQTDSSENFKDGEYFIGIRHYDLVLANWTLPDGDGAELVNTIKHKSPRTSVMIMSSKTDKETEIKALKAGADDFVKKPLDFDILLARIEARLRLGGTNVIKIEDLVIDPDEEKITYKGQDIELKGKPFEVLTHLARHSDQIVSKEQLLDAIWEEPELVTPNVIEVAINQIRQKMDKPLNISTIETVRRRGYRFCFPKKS

In the case of `NC(=NOC(=O)Nc1ccc(Cl)cc1)c1csc([N+](=O)[O-])c1` [Ligand V, N′-{[(4-chloroanilino)carbonyl]}oxy-5-nitrothiophene-3-carboximidamide], the ΔG ([1]; absolute error 0.1) is reported as -6.2 kcal/mol, the ΔH ([1]; absolute error 0.4) is reported as -0.9 kcal/mol and the Kd ([1]; relative error 15%) is reported as 26 µM. For the same compound, the “Inhibition of in vitro DNA binding activity of CosR (EMSA)” value [2] was “noticeable inhibition”.
